Earlier results as cited in patent US20220160648A1, “Composition Comprising Hydrolyzed Collagen and Cannabidiol and Use Thereof” (Inspired Health Products, LLC, priority 2019, published 2022).

Experiments:
[1] = reported
[2] = ingested, dosages from at least 3 g to as much as 60 g per day

| SMILES | anticonvulsant properties [1] | effect on sleep [2] |
| --- | --- | --- |
| C=C(C)[C@@H]1CCC(C)=C[C@H]1c1c(O)cc(CCCCC)cc1O [CBD isolate, 2-[(1R,6R)-3-methyl-6-prop-1-en-2-ylcyclohex-2-en-1-yl]-5-pentylbenzene-1,3-diol] | did not |  |
| NCC(=O)O [glycine] |  | beneficial effect on sleep |
